Assay results published in patent publication US10206394B2, “Herbicidal compounds” (Syngenta Participations AG, priority 2014, dated 2019).
Like-named read-outs stand apart in the source and are kept apart here.

What was measured:
Test in all cases: Glasshouse assay for herbicidal activity (pre- and post-emergence), percentage phytotoxicity
Type in all cases: in vivo
[1] = test system: Avena fatua (AVEFA); settings: Avena fatua
How it was run: (§1)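 Percent injury was estimated by eye on a scale where 0% means no damage and 100% complete damage. Ratings came 15 DAA post-emergence and 20 DAA pre-emergence, with plants held under 16 h light and 65% humidity at 24/18 °C or 20/16 °C day/night.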

[2] = test system: Alopecurus myosuroides (ALOMY); settings: Alopecurus myosuroides
How it was run: as §1

[3] = test system: Lolium perenne (LOLPE); settings: Lolium perenne
How it was run: as §1

[4] = test system: Echinochloa crus-galli (ECHCG); settings: Echinochloa crus-galli
How it was run: as §1

[5] = post-emergence, 360 h, 250 g/ha, post-emergence, 15 DAA, visual assessment (100%=total damage, 0%=no damage), read-out: Post-emergence herbicidal activity (percentage phytotoxicity) AVEFA POST
[6] = pre-emergence, 480 h, 250 g/ha, pre-emergence, 20 DAA, visual assessment (100%=total damage, 0%=no damage), read-out: Pre-emergence herbicidal activity (percentage phytotoxicity) AVEFA PRE
[7] = post-emergence, 360 h, 250 g/ha, post-emergence, 15 DAA, visual assessment (100%=total damage, 0%=no damage), read-out: Post-emergence herbicidal activity (percentage phytotoxicity) ALOMY POST
[8] = pre-emergence, 480 h, 250 g/ha, pre-emergence, 20 DAA, visual assessment (100%=total damage, 0%=no damage), read-out: Pre-emergence herbicidal activity (percentage phytotoxicity) ALOMY PRE
[9] = post-emergence, 360 h, 250 g/ha, post-emergence, 15 DAA, visual assessment (100%=total damage, 0%=no damage), read-out: Post-emergence herbicidal activity (percentage phytotoxicity) LOLPE POST
[10] = pre-emergence, 480 h, 250 g/ha, pre-emergence, 20 DAA, visual assessment (100%=total damage, 0%=no damage), read-out: Pre-emergence herbicidal activity (percentage phytotoxicity) LOLPE PRE
[11] = post-emergence, 360 h, 250 g/ha, post-emergence, 15 DAA, visual assessment (100%=total damage, 0%=no damage), read-out: Post-emergence herbicidal activity (percentage phytotoxicity) ECHCG POST
[12] = pre-emergence, 480 h, 250 g/ha, pre-emergence, 20 DAA, visual assessment (100%=total damage, 0%=no damage), read-out: Pre-emergence herbicidal activity (percentage phytotoxicity) ECHCG PRE
[13] = post-emergence, 360 h, POST-emergence, rate 250 g/ha, visual score 15 DAA (100%=total damage, 0%=no damage), read-out: Post-emergence herbicidal activity (percentage phytotoxicity) AVEFA POST
[14] = pre-emergence, 480 h, PRE-emergence, rate 250 g/ha, visual score 20 DAA (100%=total damage, 0%=no damage), read-out: Pre-emergence herbicidal activity (percentage phytotoxicity) AVEFA PRE
[15] = post-emergence, 360 h, POST-emergence, rate 250 g/ha, visual score 15 DAA (100%=total damage, 0%=no damage), read-out: Post-emergence herbicidal activity (percentage phytotoxicity) ALOMY POST
[16] = pre-emergence, 480 h, PRE-emergence, rate 250 g/ha, visual score 20 DAA (100%=total damage, 0%=no damage), read-out: Pre-emergence herbicidal activity (percentage phytotoxicity) ALOMY PRE
[17] = post-emergence, 360 h, POST-emergence, rate 250 g/ha, visual score 15 DAA (100%=total damage, 0%=no damage), read-out: Post-emergence herbicidal activity (percentage phytotoxicity) LOLPE POST
[18] = pre-emergence, 480 h, PRE-emergence, rate 250 g/ha, visual score 20 DAA (100%=total damage, 0%=no damage), read-out: Pre-emergence herbicidal activity (percentage phytotoxicity) LOLPE PRE
[19] = post-emergence, 360 h, POST-emergence, rate 250 g/ha, visual score 15 DAA (100%=total damage, 0%=no damage), read-out: Post-emergence herbicidal activity (percentage phytotoxicity) ECHCG POST
[20] = pre-emergence, 480 h, PRE-emergence, rate 250 g/ha, visual score 20 DAA (100%=total damage, 0%=no damage), read-out: Pre-emergence herbicidal activity (percentage phytotoxicity) ECHCG PRE

Compound | pest or weed control at 250 g/ha [1, 5] | pest or weed control at 250 g/ha [1, 6] | pest or weed control at 250 g/ha [2, 7] | pest or weed control at 250 g/ha [2, 8] | pest or weed control at 250 g/ha [3, 9] | pest or weed control at 250 g/ha [3, 10] | pest or weed control at 250 g/ha [4, 11] | pest or weed control at 250 g/ha [4, 12] | pest or weed control at 250 g/ha ([1]; post-emergence, 360 h, post-emergence, 250 g/ha, 15 DAA, visual score (100%=total damage; 0%=no damage), read-out: AVEFA POST herbicidal activity (percentage phytotoxicity)) | pest or weed control at 250 g/ha ([2]; post-emergence, 360 h, post-emergence, 250 g/ha, 15 DAA, visual score (100%=total damage; 0%=no damage), read-out: ALOMY POST herbicidal activity (percentage phytotoxicity)) | pest or weed control at 250 g/ha ([3]; post-emergence, 360 h, post-emergence, 250 g/ha, 15 DAA, visual score (100%=total damage; 0%=no damage), read-out: LOLPE POST herbicidal activity (percentage phytotoxicity)) | pest or weed control at 250 g/ha ([4]; post-emergence, 360 h, post-emergence, 250 g/ha, 15 DAA, visual score (100%=total damage; 0%=no damage), read-out: ECHCG POST herbicidal activity (percentage phytotoxicity)) | pest or weed control at 250 g/ha [1, 13] | pest or weed control at 250 g/ha [1, 14] | pest or weed control at 250 g/ha [2, 15] | pest or weed control at 250 g/ha [2, 16] | pest or weed control at 250 g/ha [3, 17] | pest or weed control at 250 g/ha [3, 18] | pest or weed control at 250 g/ha [4, 19] | pest or weed control at 250 g/ha [4, 20]
Cc1cc(-c2ncc(F)cc2F)cc(C)c1C1C(=O)CC(CC(=O)NCc2ccc(Br)cc2)C1=O (centres unmarked) [Compound B100] | 100% | 60% | 100% | 80% | 100% | 90% | 100% | 100% |  |  |  |  |  |  |  |  |  |  |  | 
Cc1cc(C)c(C2C(=O)CC(CC(=O)NCC3CSC3)C2=O)c(C)c1 (centres unmarked) [Compound A174] |  |  |  |  |  |  |  |  | 0% | 40% | 0% | 10% |  |  |  |  |  |  |  | 
C/C=C/c1cc(C)c(C2C(=O)CC(CC(=O)NCc3ccccc3)C2=O)c(CC)c1 (centres unmarked) [Compound B190] |  |  |  |  |  |  |  |  |  |  |  |  | 90% | 40% | 70% | 60% | 80% | 70% | 100% | 80%
Cc1cc(-c2ncc(F)cc2F)cc(C)c1C1C(=O)CC(CC(=O)NCc2cccc(C(F)(F)F)c2)C1=O (centres unmarked) [Compound B88] | 100% | 70% | 100% | 90% | 100% | 90% | 100% | 90% |  |  |  |  |  |  |  |  |  |  |  | 
CCc1cc(-n2cc(Cl)cn2)cc(C)c1C1C(=O)CC(CC(=O)NCc2cccc(Cl)c2)C1=O (centres unmarked) [Compound B231] |  |  |  |  |  |  |  |  |  |  |  |  | 100% | 20% | 90% | 50% | 90% | 80% | 90% | 80%
Cc1cc(-c2ncc(F)cc2F)cc(C)c1C1C(=O)CC(CC(=O)N2CCOCC2)C1=O (centres unmarked) [Compound B101] | 90% | 70% | 90% | 90% | 100% | 100% | 100% | 100% |  |  |  |  |  |  |  |  |  |  |  | 
